{
  "source": "ChEMBL document CHEMBL5500403",
  "about": "“Discovery of a Double-Stapled Short Peptide as a Long-Acting HIV-1 Inactivator with Potential for Oral Bioavailability” (J Med Chem, 2024)",
  "key": {"[1]": {"experiment": "Volume of distribution at steady state in Sprague-Dawley rat at 10 mg/kg,iv administration measured upto 9 days by LC-MS/MS analysis", "type": "ADME, organism-based", "conditions": "in vivo, 216 h, time < 9 day"}, "[2]": {"experiment": "Biodistribution in Sprague-Dawley rat testis assessed as fold increase in AUC at 1 mg/kg,iv administration measured after 12 days by LC-MS/MS analysis", "type": "ADME, organism-based", "conditions": "in vivo, 288 h, time 12 day"}, "[3]": {"test_system": "Human immunodeficiency virus 1", "experiment": "Antiviral activity against HIV-1 Bal-R5 infected in human CEMx174 5.25M7 cells assessed as inhibition of viral growth pretreated with virus for 30 mins followed by infection with cells incubated for 72 hrs by ELISA", "type": "functional, organism-based", "conditions": "Human immunodeficiency virus 1, Bal-R5, CEMx174 5.25M7"}, "[4]": {"experiment": "Drug concentration in Sprague-Dawley rat plasma at 10 mg/kg,iv administrated upto 8 days by LC-MS/MS analysis", "type": "ADME, organism-based", "conditions": "in vivo, 192 h, time < 8 day"}, "[5]": {"test_system": "Human immunodeficiency virus 1", "experiment": "Antiviral activity against HIV-1 Bal-R5 assessed as reduction in viral growth by measuring p24 antigen level incubated for 2 hrs by ELISA", "type": "functional, organism-based", "conditions": "Human immunodeficiency virus 1, Bal-R5, 2 h"}, "[6]": {"experiment": "Selectivity index, ratio of CC50 for cytotoxicity against human MT2 cells to IC50 for antiviral activity against HIV-1 IIIB infected in human MT2 cells", "type": "toxicity, cell-based", "conditions": "read-out: Ratio CC50/IC50"}, "[7]": {"experiment": "Biodistribution in Sprague-Dawley rat brain at 1 mg/kg,iv administration measured upto 12 days by LC-MS/MS analysis", "type": "ADME, organism-based", "conditions": "in vivo, 288 h, time < 12 day"}, "[8]": {"experiment": "Toxicity in BALB/c mouse assessed as histopathological change in liver at 20 mg/kg,iv administration measured after 14 days by hematoxylin and eosin staining based assay", "type": "organism-based", "conditions": "in vivo, 336 h, time 14 day"}, "[9]": {"test_system": "Human immunodeficiency virus 1", "experiment": "Binding affinity to cytoplasmic LLP1 domain of HIV-1 GP41 by ELISA"}, "[10]": {"experiment": "Toxicity in BALB/c mouse assessed as change in serum creatinine level at 20 mg/kg,iv administration measured upto 6 days", "type": "organism-based", "conditions": "in vivo, 144 h, time < 6 day"}, "ACH-2 cell line [11]": {"test_system": "ACH-2 cell line", "experiment": "Cytotoxicity against chidamide non-reactivated human ACH-2 cell line infected with latent HIV-1 assessed as reduction in cell viability at 1.25 to 5 uM", "type": "functional, cell-based", "conditions": "dose 1.25-5 µM"}, "[12]": {"experiment": "Toxicity in Sprague-Dawley rat assessed as cell degeneration in liver at 50 mg/kg,iv administration measured after 14 days by hematoxylin and eosin staining based assay", "type": "organism-based", "conditions": "in vivo, 336 h, time 14 day"}, "[13]": {"experiment": "Elimination half life in Sprague-Dawley rat at 10 mg/kg,iv administration measured upto 9 days by LC-MS/MS analysis", "type": "ADME, organism-based", "conditions": "in vivo, time < 9 day, read-out: beta t1/2"}, "[14]": {"experiment": "Toxicity in Sprague-Dawley rat assessed as neural damage by measuring NeuN positive cell at 50 mg/kg,iv administration measured after 14 days", "type": "organism-based", "conditions": "in vivo, 336 h, time 14 day"}, "[15]": {"experiment": "Drug concentration in Sprague-Dawley rat plasma assessed as fold increase in drug uptake at 10 mg/kg,iv administrated upto 8 days by LC-MS/MS analysis", "type": "ADME, organism-based", "conditions": "in vivo, 192 h, time < 8 day"}, "[16]": {"experiment": "Plasma protein binding in rat by LC-MS/MS analysis", "type": "ADME, cell-free", "conditions": "read-out: PPB (converted)"}, "[17]": {"experiment": "Biodistribution in Sprague-Dawley rat spleen assessed as fold increase in AUC at 1 mg/kg,iv administration measured after 12 days by LC-MS/MS analysis", "type": "ADME, organism-based", "conditions": "in vivo, 288 h, time 12 day"}, "[18]": {"experiment": "Drug concentration in Sprague-Dawley rat plasma at 50 mg/kg,po administrated for 5 days by LC-MS/MS analysis", "type": "ADME, organism-based", "conditions": "in vivo, 120 h, time 5 day"}, "[19]": {"test_system": "Human immunodeficiency virus 1", "experiment": "Antiviral activity against T20-resistant HIV-1 NL4-3 harboring […] N42T and N43K mutant infected in human MT2 cells assessed as inhibition of viral growth pretreated with virus for 30 mins followed by infection with cells incubated for 72 hrs by ELISA", "type": "functional, organism-based"}, "[20]": {"test_system": "Human immunodeficiency virus 1", "experiment": "Antiviral activity against T20-resistant HIV-1 NL4-3 harboring […] V38E and N42S mutant assessed as reduction in viral growth by measuring p24 antigen level incubated for 2 hrs by ELISA", "type": "functional, organism-based"}, "[21]": {"test_system": "Human immunodeficiency virus 1", "experiment": "Antiviral activity against T20-resistant HIV-1 NL4-3 harboring […] N38A and N42T mutant assessed as reduction in viral growth by measuring p24 antigen level incubated for 2 hrs by ELISA", "type": "functional, organism-based"}, "[22]": {"experiment": "Toxicity in Sprague-Dawley rat assessed as histopathological change in kidney at 50 mg/kg,iv administration measured after 14 days by hematoxylin and eosin staining based assay", "type": "organism-based", "conditions": "in vivo, 336 h, time 14 day"}, "[23]": {"experiment": "AUClast in Sprague-Dawley rat at 10 mg/kg,iv administration measured upto 9 days by LC-MS/MS analysis", "type": "ADME, organism-based", "conditions": "in vivo, time < 9 day"}, "[24]": {"experiment": "Apparent permeability in human Caco-2 cells at 5 uM", "type": "ADME, cell-based"}, "[25]": {"experiment": "Toxicity in Sprague-Dawley rat assessed as change in serum ALT level at 50 mg/kg,iv administration measured upto 6 days", "type": "organism-based", "conditions": "in vivo, 144 h, time < 6 day"}, "[26]": {"test_system": "Human immunodeficiency virus 1", "experiment": "Antiviral activity against T20-resistant HIV-1 NL4-3 harboring […] V38E and N42S mutant infected in human MT2 cells assessed as inhibition of viral growth pretreated with virus for 30 mins followed by infection with cells incubated for 72 hrs by ELISA", "type": "functional, organism-based"}, "[27]": {"experiment": "Toxicity in Sprague-Dawley rat assessed as cell degeneration in kidney at 50 mg/kg,iv administration measured after 14 days by hematoxylin and eosin staining based assay", "type": "organism-based", "conditions": "in vivo, 336 h, time 14 day"}, "[28]": {"test_system": "Human immunodeficiency virus 1", "experiment": "Antiviral activity against T20-resistant HIV-1 NL4-3 harboring […] N42T and N43K mutant assessed as reduction in viral growth by measuring p24 antigen level incubated for 2 hrs by ELISA", "type": "functional, organism-based"}, "[29]": {"experiment": "Toxicity in BALB/c mouse assessed as histopathological change in kidney at 100 mg/kg,iv administration measured after 14 days by hematoxylin and eosin staining based assay", "type": "organism-based", "conditions": "in vivo, 336 h, time 14 day"}, "[30]": {"experiment": "Toxicity in BALB/c mouse assessed as change in serum ALT level at 20 mg/kg,iv administration measured upto 6 days", "type": "organism-based", "conditions": "in vivo, 144 h, time < 6 day"}, "[31]": {"experiment": "Toxicity in female BALB/c mouse assessed as change in body weight at 20 mg/kg,iv administration measured upto 14 days", "type": "organism-based", "conditions": "in vivo, 336 h, time < 14 day"}, "[32]": {"test_system": "Human immunodeficiency virus 1", "experiment": "Antiviral activity against HIV-1 IIIB infected in human MT2 cells assessed as inhibition of viral growth pretreated with virus for 30 mins followed by infection with cells incubated for 72 hrs by ELISA", "type": "functional, organism-based", "conditions": "Human immunodeficiency virus 1, IIIB"}, "[33]": {"experiment": "Toxicity in female BALB/c mouse assessed as change in body weight at 100 mg/kg,iv administration measured upto 14 days", "type": "organism-based", "conditions": "in vivo, 336 h, time < 14 day"}, "[34]": {"experiment": "Toxicity in BALB/c mouse assessed as histopathological change in kidney at 20 mg/kg,iv administration measured after 14 days by hematoxylin and eosin staining based assay", "type": "organism-based", "conditions": "in vivo, 336 h, time 14 day"}, "[35]": {"experiment": "Stability in Sprague-Dawley rat liver microsomes in presence of NADPH by LC-MS/MS analysis", "type": "ADME, Microsome"}, "ACH-2 cell line [36]": {"test_system": "ACH-2 cell line", "experiment": "Cytotoxicity against chidamide reactivated human ACH-2 cell line infected with latent HIV-1 assessed as reduction in cell viability at 1.25 to 5 uM", "type": "functional, cell-based", "conditions": "dose 1.25-5 µM"}, "[37]": {"experiment": "Plasma protein binding in human by LC-MS/MS analysis", "type": "ADME, cell-free", "conditions": "read-out: PPB (converted)"}},
  "note": "Activity calls are given as the source filed them. No cut-off for these calls is given here. Bridge positions count the residues as written; N and C are the ends. Square brackets hold non-standard residues; d marks the D form. Peptide text beside a SMILES is read from it. S5 = C=CCCC[C@](C)(N)C(=O)O",
  "data": [
    {"compound": "CC(=O)NCC(=O)N[C@@]1(C)CCC/C=C\\CCC[C@@](C)(C(=O)N[C@@H](Cc2ccc(O)cc2)C(=O)N[C@@H](CC(C)C)C(=O)N[C@@]2(C)CCC/C=C\\CCC[C@@](C)(C(=O)N[C@@H](Cc3ccc(O)cc3)C(=O)N[C@@H](Cc3c[nH]c4ccccc34)C(N)=O)NC(=O)[C@H](CC(C)C)NC(=O)[C@H](CC(C)C)NC(=O)[C@H](CC(N)=O)NC2=O)NC(=O)[C@H](CC(C)C)NC(=O)[C@H](C)NC(=O)[C@H](CCC(=O)O)NC1=O", "note": "(Ac-G[S5]EAL[S5]YL[S5]NLL[S5]YW-NH2; staple (Z) 2-6, 9-13)", "values": [
      {"measurement": "Vdss", "setting": "[1]", "value": 3.6489, "unit": "L/kg"},
      {"measurement": "fold change (FC)", "setting": "[2]", "value": 15},
      {"measurement": "IC50", "setting": "[3]", "value": 180, "unit": "nM"},
      {"measurement": "Drug uptake", "setting": "[4]", "value": "Active"},
      {"measurement": "EC50", "setting": "[5]", "value": 36700, "unit": "nM"},
      {"measurement": "selectivity ratio", "setting": "[6]", "value": 216},
      {"measurement": "Drug uptake", "setting": "[7]", "value": "Active"},
      {"measurement": "Activity", "setting": "[8]", "value": "Non-Toxic"},
      {"measurement": "Activity", "setting": "[9]", "value": "Dose-Dependent Effect"},
      {"measurement": "Activity", "setting": "[10]", "value": "Non-Toxic"},
      {"measurement": "Activity", "setting": "ACH-2 cell line [11]", "value": "inactive"},
      {"measurement": "Activity", "setting": "[12]", "value": "Non-Toxic"},
      {"measurement": "half-life", "setting": "[13]", "value": "> 70", "unit": "h"},
      {"measurement": "Activity", "setting": "[14]", "value": "Non-Toxic"},
      {"measurement": "fold change (FC)", "setting": "[15]", "value": 8.3},
      {"measurement": "fraction unbound", "setting": "[16]", "value": 0.153},
      {"measurement": "fold change (FC)", "setting": "[17]", "value": 10},
      {"measurement": "Drug uptake", "setting": "[18]", "value": "Active"},
      {"measurement": "IC50", "setting": "[19]", "value": 124, "unit": "nM"},
      {"measurement": "EC50", "setting": "[20]", "value": 50.6, "unit": "nM"},
      {"measurement": "EC50", "setting": "[21]", "value": 23.1, "unit": "nM"},
      {"measurement": "Activity", "setting": "[22]", "value": "Non-Toxic"},
      {"measurement": "AUC(0-t) at 216 h", "setting": "[23]", "value": 334, "unit": "µg·h/mL"},
      {"measurement": "Papp at 5 µM", "setting": "[24]", "value": "< 0.02", "unit": "×10⁻⁶ cm/s"},
      {"measurement": "Activity", "setting": "[25]", "value": "Non-Toxic"},
      {"measurement": "IC50", "setting": "[26]", "value": 32.6, "unit": "nM"},
      {"measurement": "Activity", "setting": "[27]", "value": "Non-Toxic"},
      {"measurement": "EC50", "setting": "[28]", "value": 114, "unit": "nM"},
      {"measurement": "Activity", "setting": "[29]", "value": "Non-Toxic"},
      {"measurement": "Activity", "setting": "[30]", "value": "Non-Toxic"},
      {"measurement": "Activity", "setting": "[31]", "value": "Non-Toxic"},
      {"measurement": "IC50", "setting": "[32]", "value": 23.5, "unit": "nM"},
      {"measurement": "Activity", "setting": "[33]", "value": "Non-Toxic"},
      {"measurement": "Activity", "setting": "[34]", "value": "Non-Toxic"},
      {"measurement": "Stability", "setting": "[35]", "value": "Stable"},
      {"measurement": "Activity", "setting": "ACH-2 cell line [36]", "value": "Active"},
      {"measurement": "fraction unbound", "setting": "[37]", "value": 0.182}
    ]}
  ]
}
